Experimental data as given in US20240368139A1, “NOVEL MODULATORS OF EHMT1 AND EHMT2 AND THERAPEUTIC USE THEREOF” (Tango Therapeutics, Inc., priority 2021, published 2024).

What was measured:
H3K9me2 in HCT116 cells = experiment: HCT116 H3K9me2 in-cell western assay; format: cell-based; conditions: Homo sapiens, HCT-116, 72 h, HCT116 cells, 72 hours incubation; read-out: H3K9me2 ICW IC50
Text: HCT116 cell line was purchased from ATCC (Manassas, VA, USA). […] Penicillin-Streptomycin and heat inactivated fetal bovine serum were purchased from Hyclone (Logan, UT, USA). DPBS, Corning^R were purchased from VWR (Radnor, PA, USA). Triton′ X-100 was purchased from Sigma (St. Louis, MO, USA). Intercept blocking buffer, DRAQ5, Licor Odyssey Infrared Scanner were purchased from Licor Biosciences (Lincoln, NB, USA). Plate washer was purchased from BioTek (Winooski, VT, USA). […] 16% Paraformaldehyde was purchased from Electron Microscopy Sciences (Hatfield, PA, USA). HCT116 cells were maintained in complete growth medium (RPMI supplemented with 10% heat inactivated fetal bovine serum, 1% Penicillin-Streptomycin) and cultured at 37° C. under 5% CO2. N^2-(4-methoxy-3-(3-(pyrrolidin-1-yl)propoxy)phenyl)-N^4,6-dimethyl]pyrimidine-2,4-diamine (synthesis disclosed in International Application WO2017181177A1) was used as a control compound.
HCT116 cells (ATCC) were trypsinized, counted and seeded in assay medium (RPMI supplemented with 10% heat inactivated fetal bovine serum, 1% Penicillin-Streptomycin) at a concentration of 2,000 cells per well to a 384-well cell culture plate with compounds in 50 μl per well. Plates were incubated with at 37° C. under 5% CO2 for 72 hours. After the incubation, 50 μl per well of 8% paraformaldehyde in PBS was added to the plates and incubated at room temperature for 20 minutes. Plates were transferred to a BioTek (EL406) plate washer and washed 5 times with 110 μl per well of wash buffer (1×PBS containing 0.1% Triton X-100). The plates were next blocked with 50 μl of Intercept blocking buffer for 1 hour at room temperature. Blocking buffer was removed and 30 μl per well of monoclonal primary antibody of H3K9me2 (CST) diluted 1:200 in Intercept blocking buffer were added and plates were incubated overnight at 4° C. The plates were then washed 5 times with 110 μl per well of wash buffer (1×PBS containing 0.1% Triton X-100). Next 30 μl per well of secondary was added (1:400 800 CW goat anti-rabbit IgG in blocking buffer) with 1:1000 DRAQ5 in blocking buffer and incubated for 2 hours at room temperature. The plates were washed 5 times with 110 μl per well of wash buffer (1×PBS containing 0.1% Triton X-100) then with 100 μl per well of water once. Plates were allowed to dry at room temperature then imaged on a Licor Odyssey Infrared Scanner which measured integrated intensity at 700 nm and 800 nm wavelength. Both 700 and 800 channels were scanned.
The average of the ratio values (800 nm/700 nm) for each well was calculated and used to determine the percentage for each test well in the plate. Compounds were serially diluted two-fold in 0.1% DMSO for a total of 10 test concentrations beginning at 10 μM. IC50 curves were generated using duplicate wells per concentration of compound. […] IC50 values were calculated using a non-linear regression of Prism.

human EHMT2 913-1193 = target: T1, human EHMT2 913-1193 (Homo sapiens, UniProt Q96KQ7); experiment: EHMT2 enzyme assay on histone peptide substrate (3H-SAM SPA); conditions: EHMT2 IC50, recombinant human EHMT2 913-1193, histone peptide substrate
T1 sequence (Q96KQ7 913-1193): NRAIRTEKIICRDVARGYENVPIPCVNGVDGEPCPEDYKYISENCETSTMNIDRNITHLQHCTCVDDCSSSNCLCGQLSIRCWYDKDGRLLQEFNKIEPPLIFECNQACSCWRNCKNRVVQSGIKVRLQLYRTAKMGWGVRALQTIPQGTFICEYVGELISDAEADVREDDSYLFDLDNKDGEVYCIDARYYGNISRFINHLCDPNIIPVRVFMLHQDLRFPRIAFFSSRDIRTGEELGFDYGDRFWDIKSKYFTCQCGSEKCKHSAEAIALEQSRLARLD

human EHMT1 982-1266 = target: T2, human EHMT1 982-1266 (Homo sapiens, UniProt Q9H9B1); experiment: EHMT1 enzyme assay on histone peptide substrate (3H-SAM SPA); conditions: EHMT1 IC50, recombinant human EHMT1 982-1266, histone peptide substrate
T2 sequence (Q9H9B1 982-1266): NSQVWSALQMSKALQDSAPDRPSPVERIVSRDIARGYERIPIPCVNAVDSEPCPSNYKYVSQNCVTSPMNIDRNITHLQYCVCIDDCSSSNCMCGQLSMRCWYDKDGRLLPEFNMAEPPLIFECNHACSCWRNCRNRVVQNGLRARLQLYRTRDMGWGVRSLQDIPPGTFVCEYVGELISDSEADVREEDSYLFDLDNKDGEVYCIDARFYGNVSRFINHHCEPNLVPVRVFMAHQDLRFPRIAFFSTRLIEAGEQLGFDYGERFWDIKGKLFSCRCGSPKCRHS

| IC50 (H3K9me2 in HCT116 cells) | IC50 (human EHMT2 913-1193) | IC50 (human EHMT1 982-1266) | Structure (SMILES) |
| --- | --- | --- | --- |
| < 100 nM | 100 to 500 nM | < 100 nM | CNc1cc(C)nc(Nc2cc3c(c(C4=CCNC[C@H](O)C4)c2F)OC[C@@H]3C)n1 (stereo in doubt) [Compound 401, rel-(3R)-5-[rel-(3R)-6-fluoro-3-methyl-5-[[4-methyl-6-(methylamino)pyrimidin-2-yl]amino]-2,3-dihydrobenzofuran-7-yl]-2,3,4,7-tetrahydro-1H-azepin-3-ol] |
| < 100 nM | < 100 nM | < 100 nM | CNc1cc(C)nc(Nc2cc3c(c(C4=CCNC[C@@H](O)C4)c2F)OC[C@H]3C)n1 (stereo in doubt) [Compound 420, rel-(3S)-5-[rel-(3S)-6-fluoro-3-methyl-5-[[4-methyl-6-(methylamino)pyrimidin-2-yl]amino]-2,3-dihydrobenzofuran-7-yl]-2,3,4,7-tetrahydro-1H-azepin-3-ol] |
| < 100 nM | < 100 nM | < 100 nM | CNc1cc(C)nc(Nc2cc3c(c(C4=CCNC[C@@H](O)C4)c2F)OC[C@@H]3C)n1 (stereo in doubt) [Compound 422, rel-(3S)-5-[rel-(3R)-6-fluoro-3-methyl-5-[[4-methyl-6-(methylamino)pyrimidin-2-yl]amino]-2,3-dihydrobenzofuran-7-yl]-2,3,4,7-tetrahydro-1H-azepin-3-ol] |
| 500 to 2000 nM | 500 to 2000 nM | 100 to 500 nM | CNc1cc(C)nc(Nc2cc(OCCCN3CCCC3)c3occc3c2)n1 [Compound 102, N4,6-dimethyl-N2-[7-(3-pyrrolidin-1-ylpropoxy)benzofuran-5-yl]pyrimidine-2,4-diamine] |
| > 2000 nM | > 2000 nM | > 2000 nM | CNc1cc(C2CCCCC2)nc(Nc2cc3c(c(OCCCN4CCCC4)c2)OCC3)n1 [Compound 104, 6-cyclohexyl-N4-methyl-N2-[7-(3-pyrrolidin-1-ylpropoxy)-2,3-dihydrobenzofuran-5-yl]pyrimidine-2,4-diamine] |
| 100 to 500 nM | 500 to 2000 nM | 500 to 2000 nM | CNc1cc(C)nc(Nc2cc3c(c(C4CCCNCC4)c2)OCC3)n1 (stereo not drawn) [Compound 106, N2-[7-(azepan-4-yl)-2,3-dihydrobenzofuran-5-yl]-N4,6-dimethyl-pyrimidine-2,4-diamine] |
| 100 to 500 nM | 500 to 2000 nM | 100 to 500 nM | CNc1cc(C)nc(Nc2cc3c(c(C4CCCN(C)CC4)c2)OCC3)n1 (stereo not drawn) [Compound 107, N4,6-dimethyl-N2-[7-(1-methylazepan-4-yl)-2,3-dihydrobenzofuran-5-yl]pyrimidine-2,4-diamine] |
| > 2000 nM | > 2000 nM | > 2000 nM | CNc1nc(Nc2cc3c(c(OCCCN4CCCC4)c2)OCC3)nc(C)c1F [Compound 108, 5-fluoro-N4,6-dimethyl-N2-[7-(3-pyrrolidin-1-ylpropoxy)-2,3-dihydrobenzofuran-5-yl]pyrimidine-2,4-diamine] |
| > 2000 nM | > 2000 nM | > 2000 nM | CNc1nc(Nc2cc(OCCCN3CCCC3)c3occc3c2)nc(C)c1F [Compound 109, 5-fluoro-N4,6-dimethyl-N2-[7-(3-pyrrolidin-1-ylpropoxy)benzofuran-5-yl]pyrimidine-2,4-diamine] |
| 500 to 2000 nM | > 2000 nM | 100 to 500 nM | CNc1cc(C)nc(Nc2cc3c(c(OCCN4CCCC4)c2)OCC3)n1 [Compound 112, N4,6-dimethyl-N2-[7-(2-pyrrolidin-1-ylethoxy)-2,3-dihydrobenzofuran-5-yl]pyrimidine-2,4-diamine] |
| > 2000 nM | > 2000 nM | > 2000 nM | CNc1cc(C)nc(Nc2cc3c(c(OCCCN4CCCC4)c2)OCC(=O)N3)n1 [Compound 114] |
| 500 to 2000 nM | > 2000 nM | > 2000 nM | Cc1cc(N)nc(Nc2cc3c(c(OCCCN4CCCC4)c2)OCC3)n1 [Compound 115, 6-methyl-N2-[7-(3-pyrrolidin-1-ylpropoxy)-2,3-dihydrobenzofuran-5-yl]pyrimidine-2,4-diamine] |
| > 2000 nM | > 2000 nM | 500 to 2000 nM | Cc1cc(NC2CCCC2)nc(Nc2cc3c(c(OCCCN4CCCC4)c2)OCC3)n1 [Compound 116, N4-cyclopentyl-6-methyl-N2-[7-(3-pyrrolidin-1-ylpropoxy)-2,3-dihydrobenzofuran-5-yl]pyrimidine-2,4-diamine] |
| > 2000 nM | > 2000 nM | 500 to 2000 nM | Cc1cc(NC2CCCCC2)nc(Nc2cc3c(c(OCCCN4CCCC4)c2)OCC3)n1 [Compound 117, N4-cyclohexyl-6-methyl-N2-[7-(3-pyrrolidin-1-ylpropoxy)-2,3-dihydrobenzofuran-5-yl]pyrimidine-2,4-diamine] |
| 500 to 2000 nM | > 2000 nM | 500 to 2000 nM | Cc1cc(NC2CCC2)nc(Nc2cc3c(c(OCCCN4CCCC4)c2)OCC3)n1 [Compound 119, N4-cyclobutyl-6-methyl-N2-[7-(3-pyrrolidin-1-ylpropoxy)-2,3-dihydrobenzofuran-5-yl]pyrimidine-2,4-diamine] |
| > 2000 nM | > 2000 nM | 100 to 500 nM | CNc1cc(C)nc(Nc2cc(OCCCN3CCCC3)c3oc(=O)[nH]c3c2)n1 [Compound 124, 5-[[4-methyl-6-(methylamino)pyrimidin-2-yl]amino]-7-(3-pyrrolidin-1-ylpropoxy)-3H-1,3-benzoxazol-2-one] |
| 500 to 2000 nM | 500 to 2000 nM | 500 to 2000 nM | CNc1cc(C)nc(Nc2cc3c(c(N4CCCNCC4)c2)OCC3)n1 [Compound 125, N2-[7-(1,4-diazepan-1-yl)-2,3-dihydrobenzofuran-5-yl]-N4,6-dimethyl-pyrimidine-2,4-diamine] |
| 500 to 2000 nM | 500 to 2000 nM | 500 to 2000 nM | CNc1cc(C)nc(Nc2cc3c(c(N4CCCN(C)CC4)c2)OCC3)n1 [Compound 126, N4,6-dimethyl-N2-[7-(4-methyl-1,4-diazepan-1-yl)-2,3-dihydrobenzofuran-5-yl]pyrimidine-2,4-diamine] |
| 500 to 2000 nM | 500 to 2000 nM | 100 to 500 nM | CNc1cc(C)nc(Nc2cc(OCCCN3CCCC3)c3c(c2)N(Cc2ccccc2)CCO3)n1 [Compound 127, N2-[4-benzyl-8-(3-pyrrolidin-1-ylpropoxy)-2,3-dihydro-1,4-benzoxazin-6-yl]-N4,6-dimethyl-pyrimidine-2,4-diamine] |
| 500 to 2000 nM | > 2000 nM | 500 to 2000 nM | CNc1cc(C)nc(Nc2cc3c(c(N4C[C@H]5CNC[C@H]5C4)c2)OCC3)n1 [Compound 128, N4,6-dimethyl-N2-[7-[rac-(3aS,6aR)-2,3,3a,4,6,6a-hexahydro-1H-pyrrolo[3,4-c]pyrrol-5-yl]-2,3-dihydrobenzofuran-5-yl]pyrimidine-2,4-diamine] |
| 500 to 2000 nM | > 2000 nM | 100 to 500 nM | CNc1cc(C)nc(Nc2cc3c(c(OCCCN4CCCC4)c2)OCCN3)n1 [Compound 136] |
